From PMC11876671, “Investigating blood–brain barrier penetration and neurotoxicity of natural products for central nervous system drug development” (Scientific Reports, 2025)
Counter-ions that a name gives are not always drawn.

Test: in vitro
Settings: PAMPA, PAMPA-BBB Pe

| Compound | Papp |
| --- | --- |
| CC[C@]1(O)C[C@H]2CN(CCc3c([nH]c4ccccc34)[C@@](C(=O)OC)(c3cc4c(cc3OC)N(C)[C@H]3[C@@](O)(C(=O)OC)[C@H](OC(C)=O)[C@]5(CC)C=CCN6CC[C@]43[C@@H]65)C2)C1 [V[…]] | 21 ×10⁻⁶ cm/s |

Same assay, conditions: PAMPA, PAMPA-BBB Pe(10^-6 cm/sec)

| Compound | Papp |
| --- | --- |
| Oc1cc(O)c2c(c1)O[C@H](c1ccc(O)c(O)c1)[C@H](O)C2 [L-EPICATECHIN] | < 1 ×10⁻⁶ cm/s |
| COc1ccc(/C=C/C(=O)O)cc1OC [3,4-DIMETHOXYCINNAMIC ACID] | < 1 ×10⁻⁶ cm/s |
| CN[C@H](CC(C)C)C(=O)N[C@H]1C(=O)N[C@@H](CC(N)=O)C(=O)N[C@H]2C(=O)N[C@H]3C(=O)N[C@H](C(=O)N[C@H](C(=O)O)c4cc(O)cc(O)c4-c4cc3ccc4O)[C@H](O)c3ccc(c(Cl)c3)Oc3cc2cc(c3O[C@@H]2O[C@H](CO)[C@@H](O)[C@H](O)[C@H]2O[C@H]2C[C@](C)(N)[C@H](O)[C@H](C)O2)Oc2ccc(cc2Cl)[C@H]1O [VANCOMYCIN HYDROCHLORIDE] | < 1 ×10⁻⁶ cm/s |
| CC[C@]1(O)C[C@@H]2CN(CCc3c([nH]c4ccccc34)[C@@](C(=O)OC)(c3cc4c(cc3OC)N(C)[C@H]3[C@@](O)(C(=O)OC)[C@H](OC(C)=O)[C@]5(CC)C=CCN6CC[C@]43[C@@H]65)C2)C1 [VINBLASTINE] | 5.7 ×10⁻⁶ cm/s |
| Nc1nc(=O)[nH]c2c1ncn2[C@@H]1O[C@H](CO)[C@@H](O)[C@H]1O [ISOGUANOSINE] | < 1 ×10⁻⁶ cm/s |
| CO[C@@H]1[C@H](O)[C@@H](CO)O[C@H]1n1cnc2c(=O)[nH]c(N)nc21 [2'-O-METHYLGUANOSINE] | < 1 ×10⁻⁶ cm/s |
| Oc1ccc(O)cc1 [HYDROQUINONE] | < 1 ×10⁻⁶ cm/s |
| CC[C@H](C)C(=O)O[C@H]1C[C@H](O)C=C2C=C[C@H](C)[C@H](CC[C@@H](O)C[C@@H](O)CC(=O)O)[C@H]21 [PRAVASTATIN SODIUM] | < 1 ×10⁻⁶ cm/s |

Same assay, conditions: PAMPA, PAMPA-BBB Pe(10^-6 cm/sec), Table S3: compounds exhibiting low PAMPA-BBB permeability

| Compound | Papp |
| --- | --- |
| Nc1nc2c(ncn2[C@@H]2O[C@H](COP(=O)(O)OP(=O)(O)O)[C@@H](O)[C@H]2O)c(=O)[nH]1 [Guanosine pyrophosphate] | < 1 ×10⁻⁶ cm/s |
| Oc1cc(O)c2c(c1)O[C@H](c1cc(O)c(O)c(O)c1)[C@@H](O)C2 [GALLOCATECHIN] | < 1 ×10⁻⁶ cm/s |
| C=C1CC[C@H](O)C/C1=C/C=C1\CCC[C@]2(C)[C@@H]([C@H](C)CCCC(C)C)CC[C@@H]12 [CHOLECALCIFEROL] | < 1 ×10⁻⁶ cm/s |
| CC(C)=CCC/C(C)=C/CC/C(C)=C/CO [FARNESOL TRANS,TRANS-FARNESOL] | < 1 ×10⁻⁶ cm/s |
| C[C@H]([C@H](O)CCC(C)(C)O)[C@H]1CC[C@@]2(O)C3=CC(=O)[C@@H]4C[C@@H](O)[C@@H](O)C[C@]4(C)[C@H]3CC[C@]12C [ECDYSONE] | < 1 ×10⁻⁶ cm/s |
| CC(=O)NCCc1c[nH]c2ccc(O)cc12 [NORMELATONIN] | < 1 ×10⁻⁶ cm/s |
| C[C@]12CC[C@@H]3c4ccc(O)cc4CC[C@H]3[C@@H]1C[C@@H](O)[C@@H]2O [ESTRIOL] | < 1 ×10⁻⁶ cm/s |
| O=C/C=C/c1ccccc1 | < 1 ×10⁻⁶ cm/s |
| NCCC(=O)c1ccccc1N [KYNURAMINE] | 2.4 ×10⁻⁶ cm/s |
| COc1ccc2cc3[n+](cc2c1OC)CCc1cc2c(cc1-3)OCO2 [BERBERINE HYDROCHLORIDE] | < 1 ×10⁻⁶ cm/s |
| CN(Cc1nc2c(N)nc(N)nc2nc1O)c1ccc(C(=O)N[C@@H](CCC(=O)O)C(=O)O)cc1 [7-HYDROXYMETHOTREXATE] | < 1 ×10⁻⁶ cm/s |
| OC[C@H]1O[C@@H](OC[C@H]2O[C@@H](OC/C=C/c3ccccc3)[C@H](O)[C@@H](O)[C@@H]2O)[C@@H](O)[C@@H]1O [ROSARIN] | < 1 ×10⁻⁶ cm/s |
| Cc1cc(OC(=O)c2c(C)cc(O)cc2O)cc(O)c1C(=O)O [LECANORIC ACID] | < 1 ×10⁻⁶ cm/s |
| O=c1cc(O)cc(/C=C/c2ccc(O)c(O)c2)o1 [HISPIDIN] | < 1 ×10⁻⁶ cm/s |
| CC(=O)CCc1ccc(O)cc1 [RASPBERRY KETONE] | 4.1 ×10⁻⁶ cm/s |
| COC1=C(OC)C(=O)c2ccccc2C1=O [2,3-DIMETHOXYNAPHTHOQUINONE] | 4.7 ×10⁻⁶ cm/s |
| C[C@]1(OC(=O)/C=C/c2ccccc2)C[C@@H](O)[C@]2(O)C=CO[C@@H](O[C@@H]3O[C@H](CO)[C@@H](O)[C@H](O)[C@H]3O)[C@@H]21 [HARPAGOSIDE] | < 1 ×10⁻⁶ cm/s |

| Compound | Papp |
| --- | --- |
| O=c1cc(-c2ccc(O)cc2)oc2cc(O)ccc12 [K[…]] | 2.9 ×10⁻⁶ cm/s |
| CC(=O)Nc1c2sscc-2n(C)c1=O [THIOLUTIN] | < 1 ×10⁻⁶ cm/s |
| CNCCc1c[nH]c2ccc(O)cc12 [N-METHYLSEROTONIN] | 7.1 ×10⁻⁶ cm/s |
| O=C(/C=C/c1ccc(O)c(O)c1)O[C@H](Cc1ccc(O)c(O)c1)C(=O)O [ROSMARINIC ACID] | 3.4 ×10⁻⁶ cm/s |
| CC1(C)CCC2=C(O1)c1ccccc1C(=O)C2=O [.BETA.-LAPACHONE] | < 1 ×10⁻⁶ cm/s |
| COc1cc(/C=C/C(=O)O)ccc1O [FERULIC ACID] | 1.2 ×10⁻⁶ cm/s |
| COc1cc(C(=O)O)ccc1O [VANILLIC ACID] | < 1 ×10⁻⁶ cm/s |
| CCCCC/C=C\C=C\C(=O)OCC [ETHYL TRANS-2,CIS-4-DECADIENOATE] | < 1 ×10⁻⁶ cm/s |
| CSC[C@H]1O[C@@H](n2cnc3c(N)ncnc32)[C@H](O)[C@@H]1O [METHYLTHIOADENOSINE] | < 1 ×10⁻⁶ cm/s |
| COc1ccc(O[C@@H]2O[C@H](CO)[C@H](O)[C@H](O)[C@H]2O)cc1 [4-METHOXYPHENYL .BETA.-D-GLUCOSIDE] | 1.3 ×10⁻⁶ cm/s |
| OCC(O)Cc1ccc2c(c1)OCO2 (stereo not drawn) [SAFROLGLYCOL] | 1.7 ×10⁻⁶ cm/s |
| [O-][n+]1ccccc1SSc1cccc[n+]1[O-] [[…]] | < 1 ×10⁻⁶ cm/s |
| O=C(O)/C=C/c1ccc(O)c(O)c1 [CAFFEIC ACID] | < 1 ×10⁻⁶ cm/s |
| O=c1c(O)cc([C@H]2Oc3cc(O)cc(O)c3C[C@H]2O)cc2c([C@H]3Oc4cc(O)cc(O)c4C[C@@H]3O)cc(O)c(O)c12 [THEAFLAVINE] | < 1 ×10⁻⁶ cm/s |
| COc1ccc([C@@H]2CC(=O)c3c(O)cc(O[C@@H]4O[C@H](CO)[C@@H](O)[C@H](O)[C@H]4O[C@@H]4O[C@@H](C)[C@H](O)[C@@H](O)[C@H]4O)cc3O2)cc1 [PONCIRIN] | < 1 ×10⁻⁶ cm/s |
| O=C(/C=C/c1ccc(O)c2c1[C@H](C(=O)O)[C@@H](c1ccc(O)c(O)c1)O2)O[C@H](Cc1ccc(O)c(O)c1)C(=O)O [LITHOSPERMIC ACID A] | < 1 ×10⁻⁶ cm/s |

Same assay, conditions: PAMPA, PAMPA-BBB Pe, Table S2: compounds exhibiting moderate to high PAMPA-BBB permeability

| Compound | Papp |
| --- | --- |
| COc1cc(-c2oc3cc(O)cc(O)c3c(=O)c2O)ccc1O [ISORHAMNETIN] | 528 ×10⁻⁶ cm/s |
| C/C(=C\COc1c2ccoc2cc2oc(=O)ccc12)CCC(O)C(C)(C)O (stereo not drawn) [BERGAMOTTIN DIHYDROXYBERGAMOTTIN] | 55 ×10⁻⁶ cm/s |
| CC1=C2[C@H]3OC(=O)[C@@H](C)[C@@H]3CC[C@@]2(C)C=CC1=O [SANTONINUM] | 49 ×10⁻⁶ cm/s |
| COc1cc2c(cc1O)C[C@H]1c3c(cc(OC)c(O)c3-2)CCN1C [ISOBOLDINE] | 35 ×10⁻⁶ cm/s |
| CC1=CCCC(C)(C)C12CCC(C)O2 (stereo not drawn) [T[…]] | 141 ×10⁻⁶ cm/s |
| Cc1ccc(C(C)C)cc1O [CARVACROL] | 111 ×10⁻⁶ cm/s |
| CNC(=O)Nc1ccc(Cl)c(Cl)c1 [3,4-DCPMU] | 115 ×10⁻⁶ cm/s |
| CCOC(=O)/C=C/c1ccccc1 [ETHYL CINNAMATE] | 110 ×10⁻⁶ cm/s |
| COc1ccc(/C=C/c2cc(O)cc(O)c2)cc1O [RHAPONTIN GENIN] | 70 ×10⁻⁶ cm/s |
| O=c1c2ccccc2oc2ccccc12 [XANTHONE] | 173 ×10⁻⁶ cm/s |
| COc1c2c(cc3c1OCO3)CCN(C)C2 [HYDROCOTARNINE HYDROBROMIDE] | 35 ×10⁻⁶ cm/s |
| O=C(/C=C/c1ccc(O)cc1)c1ccc(O)cc1O [TRIHYDROXYCHALCONE] | 169 ×10⁻⁶ cm/s |
| Oc1ccc(C2=Cc3ccc(O)cc3OC2)cc1 [IDRONOXIL] | 145 ×10⁻⁶ cm/s |
| COc1cc(-c2oc3cc(O)ccc3c(=O)c2O)ccc1O [GERALDOL] | 124 ×10⁻⁶ cm/s |
| CC(C)c1cccc(O)c1 [M-ISOPROPYLPHENOL] | 149 ×10⁻⁶ cm/s |
| CCC12C=CCN3CC[C@@]4(c5ccc(OC)cc5N(C)[C@H]4[C@@](O)(C(=O)OC)[C@@H]1OC(C)=O)[C@@H]32 (stereo partly drawn) [VINDOLINE] | 92 ×10⁻⁶ cm/s |
| CCCCCCCCCCCCCC(=O)O[C@@H]1[C@@H](C)[C@@]2(O)[C@@H](C=C(CO)C[C@]3(O)C(=O)C(C)=C[C@@H]23)[C@@H]2C(C)(C)[C@]12OC(C)=O [PHORBOL MYRISTATE ACETATE] | 47 ×10⁻⁶ cm/s |
| CC[C@H](C)[C@H]1O[C@]2(C=C[C@@H]1C)C[C@@H]1C[C@@H](C/C=C(\C)[C@@H](O[C@H]3C[C@H](OC)[C@@H](O[C@H]4C[C@H](OC)[C@@H](O)[C@H](C)O4)[C@H](C)O3)[C@@H](C)/C=C/C=C3\CO[C@@H]4[C@H](O)C(C)=C[C@@H](C(=O)O1)[C@]34O)O2 [ABAMECTIN B1A] | 35 ×10⁻⁶ cm/s |
| O=c1cc(N2CCOCC2)oc2c(-c3cccc4c3sc3ccccc34)cccc12 | 102 ×10⁻⁶ cm/s |
| O=[N+]([O-])c1c(Cl)cccc1-c1c[nH]cc1Cl [PYRROLNITRIN] | 159 ×10⁻⁶ cm/s |
| O=C1c2c(O)cc(O)cc2O[C@@H](c2ccc(O)cc2)[C@@H]1O [AROMADENDRINE] | 58 ×10⁻⁶ cm/s |
| CCCC[C@@H](C)/C=C(C)/C=C(\C)C(=O)NC1=C[C@@](O)(/C=C/C=C/C=C/C(=O)NC2=C(O)CCC2=O)[C@@H]2O[C@@H]2C1=O [MANUMYCIN A] | 64 ×10⁻⁶ cm/s |
| C=C[C@H]1CN2CCc3c([nH]c4ccccc34)[C@H]2C[C@@H]1/C(=C\OC)C(=O)OC [HIRSUTEINE] | 118 ×10⁻⁶ cm/s |
| COC(=O)c1ccc(OC)cc1 [METHYL ANISATE] | 103 ×10⁻⁶ cm/s |
| CC(C)=CCOc1c2occc2cc2ccc(=O)oc12 [PENTOSALEN] | 195 ×10⁻⁶ cm/s |
| COC(=O)c1c(C)cc(O)cc1O [Methyl 2,4-dihydroxy-6-methylbenzoate] | 63 ×10⁻⁶ cm/s |
| C[C@]12CC[C@H]3[C@@H](CCC4=CC(=O)CC[C@@]43C)[C@@H]1CC[C@@H]2C(=O)CO [DESOXYCORTICOSTERONE] | 65 ×10⁻⁶ cm/s |
